Measured values: patent US20110212053A1, “PHOSPHATIDYLINOSITOL 3 KINASE INHIBITORS” (priority 2008, published 2011)

Tests used:
[1] = test system: U-87 MG cells; test: CellTiter-GLO cell proliferation assay, U-87 MG; assay type: cell-based; details: Homo sapiens, preliminary experiments, no unit printed with the values (paragraph speaks of nM), read-out: mean concentration for 50% inhibition of U-87 MG cell proliferation
Description: (§1) Compound Preparation: Cell-based assays: 1000× stocks of inhibitors were prepared in DMSO. A 10 mM master stock was prepared and all other stocks were generated by serial dilution of the master stock in DMSO. The final concentration of DMSO in cell-based assays was 0.1% (v/v).
CellTiter-GLO® Cell Proliferation Assay: CellTiter-GLO® (Promega) quantifies cell number as a measure of the ATP in a cell culture. 1,000-10,000 human tumor cells (of multiple histotypes) were plated in 100 μL of growth medium (10% (v/v) FBS in DMEM) in white, collagen coated 96-well plates (Biocoat) and allowed to adhere overnight at 37° C. in a 5% CO2 incubator. All test inhibitors were prepared in DMSO. For EC50 determinations, 1000× inhibitor stocks were prepared from a 10 mM master stock by serial dilution in DMSO and subsequently diluted in fresh growth medium to the desired inhibitor concentration. The growth medium was removed by aspiration and replaced with fresh medium containing inhibitors. […]
After 72 hours, the plates were removed from the incubator and equilibrated to room temperature for 30 minutes. […] Plates were incubated in the dark for 10 minutes at room temperature before reading luminescence on a SpectraMax M5 luminometer. Results are expressed as % inhibition relative to control cells (DMSO only). EC50 values were calculated via non-linear regression using GraphPad Prism data analysis software.

[2] = test system: p-AKT(S473) in IGF-1-stimulated A549 cells; test: In-cell western blot (cytoblot) of AKT phosphorylation, IGF-1-stimulated A549; assay type: cell-based; details: Homo sapiens, read-out: IC50 against the p-AKT(S473) phosphorylation site
Description: as §1
In-cell western blot (cytoblot) mechanistic assay; Measurement of AKT phosphorylation: The in-cell western blot assay is a quantitative 96-well immunocytochemistry assay using fixed cells. Phosphorylated AKT is detected and quantified via either enhanced chemiluminescence (ECL) or near infra-red (LI-COR) methods. Log-phase cells (10,000 A549, RKO or 30,000 U-87 MG) were plated in collagen coated, 96 well plates (Nunc) in 200 μL of growth medium (10% FBS/DMEM) and allowed to attach overnight at 37° C. in 5% CO2 incubator. Black 96 well plates were used for ECL assays. White, clear bottomed 96 well plates were used for LI-COR assays. The following day the growth medium was removed. For experiments using U-87 MG cells and RKO cells, the growth medium was replaced with 200 μL of fresh growth medium containing inhibitors dissolved in DMSO. PI3K inhibitors were dosed using half-log dilutions to generate an eight-point dose-response curve from 0.0 μM-10 μM for EC50 determinations, and the final concentration of DMSO in the test wells was 0.1% (v/v). The inhibitor treated cells were then incubated for 1 hour at 37° C. […]
After the inhibitor incubation phase (with or without IGF-1 stimulation), the medium was aspirated, the cells washed once with Tris-Buffered Saline (TBS) and then fixed in the wells by addition of 200 μL of cold 3.7% (v/v) formaldehyde diluted in TBS to test wells and incubated for 15 minutes at 4° C. […] The wells were then was washed four times with ice-cold TBS-T. Phospho-AKT luminescent signal was detected after a 1 minute incubation of test wells with 100 μL of ECL reagent using a SpectraMax M5 luminometer. (ii) Near-infrared fluorescence detection (LI-COR): After removal of the methanol, wells were blocked with 200 μL of LI-COR blocking buffer for 1 hour at room temperature. […]

[3] = target: TRKC (Homo sapiens, UniProt Q16288); test: Radiometric HotSpot kinase assay, TRKC; assay type: biochemical; details: 1 μM compound, 10 μM ATP
Sequence of TRKC (Q16288 32-839): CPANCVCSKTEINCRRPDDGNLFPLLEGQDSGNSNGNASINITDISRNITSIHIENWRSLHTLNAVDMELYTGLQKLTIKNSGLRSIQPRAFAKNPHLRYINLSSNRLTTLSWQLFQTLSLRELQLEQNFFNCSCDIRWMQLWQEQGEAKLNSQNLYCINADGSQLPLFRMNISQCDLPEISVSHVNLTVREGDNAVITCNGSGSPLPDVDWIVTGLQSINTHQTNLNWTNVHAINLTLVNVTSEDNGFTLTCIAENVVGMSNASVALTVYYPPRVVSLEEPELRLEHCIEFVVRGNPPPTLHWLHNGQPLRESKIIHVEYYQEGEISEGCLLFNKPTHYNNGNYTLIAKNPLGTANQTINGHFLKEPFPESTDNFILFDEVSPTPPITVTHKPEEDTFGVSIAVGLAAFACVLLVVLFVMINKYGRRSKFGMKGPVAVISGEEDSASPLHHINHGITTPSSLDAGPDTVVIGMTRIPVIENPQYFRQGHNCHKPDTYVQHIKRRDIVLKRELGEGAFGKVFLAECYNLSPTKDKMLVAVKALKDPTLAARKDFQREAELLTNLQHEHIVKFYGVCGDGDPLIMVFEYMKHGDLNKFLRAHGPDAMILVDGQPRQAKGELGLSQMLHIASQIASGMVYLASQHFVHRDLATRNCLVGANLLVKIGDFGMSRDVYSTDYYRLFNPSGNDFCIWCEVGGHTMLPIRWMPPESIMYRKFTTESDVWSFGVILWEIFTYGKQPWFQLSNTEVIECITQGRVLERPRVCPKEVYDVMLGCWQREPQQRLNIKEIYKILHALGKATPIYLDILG
Description: (§2) Kinase Profiling: The inhibitory activity of the PI3K inhibitor compounds of the invention against 250 protein kinases was determined via the radiometric HotSpot Kinase Profiling (Reaction Biology Corporation, Malvern, Pa.). Compounds were profiled at a final concentration of 1 μM compound against recombinant protein kinases in the presence of 10 μM ATP and data were expressed as percent inhibition. IC50 and/or percent inhibition at 1 μM compound values were determined for select compounds against a subset of kinases (MELK, MNK1, MNK2, mTOR, PIM-1. TRKC, and PDGFRα(D842V)).
(§3) Compounds of the invention were assayed against the select kinases using the KinaseGLO assay (MELK) or the radiometric assay (PIM, TRKC, PDGFRα(D842V), MNK1 and mTOR). IC50 values were determined using 8-10 point half-log dose dilutions and calculated via nonlinear regression analysis using Graphpad Prism data analysis software.

[4] = target: PIM-1 (Homo sapiens, UniProt P11309); test: Radiometric HotSpot kinase assay, PIM-1; assay type: biochemical; details: 1 μM compound, 10 μM ATP
Sequence of PIM-1 (P11309 whole entry): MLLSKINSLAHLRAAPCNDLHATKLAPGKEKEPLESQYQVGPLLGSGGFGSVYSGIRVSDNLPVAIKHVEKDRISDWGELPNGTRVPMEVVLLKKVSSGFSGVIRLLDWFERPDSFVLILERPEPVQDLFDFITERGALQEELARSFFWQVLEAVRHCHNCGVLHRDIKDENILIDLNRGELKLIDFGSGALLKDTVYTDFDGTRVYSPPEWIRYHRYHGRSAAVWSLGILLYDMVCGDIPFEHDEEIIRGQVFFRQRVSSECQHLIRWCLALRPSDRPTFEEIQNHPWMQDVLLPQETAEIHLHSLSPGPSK
Description: as §2, §3

| Structure (SMILES) | IC50 [1] | IC50 [2] | inhibition at 1 µM [3] | inhibition at 1 µM [4] |
| --- | --- | --- | --- | --- |
| CC(C)(C#N)c1ccc(-c2n[nH]c3cnc4ccc(-c5cnc6ccccc6c5)cc4c23)cc1 [Compound 1078, 2-methyl-2-(4-(8-(quinolin-3-yl)-3H-pyrazolo[3,4-c]quinolin-1-yl)phenyl)propanenitrile] | 295 nM | 43 nM | – | – |
| CC(C)(C#N)c1ccc(-c2n[nH]c3cnc4ccc(-c5cccnc5)cc4c23)cc1 [Compound 1107, 2-methyl-2-(4-(8-(pyridin-3-yl)-3H-pyrazolo[3,4-c]quinolin-1-yl)phenyl)propanenitrile] | 470 nM | 189 nM | > 97% | 85 to 95% |
| CC(C)(C#N)c1ccc(-c2n[nH]c3cnc4ccc(-c5ccc6ncccc6c5)cc4c23)cc1 [Compound 1110, 2-methyl-2-(4-(8-(quinolin-6-yl)-3H-pyrazolo[3,4-c]quinolin-1-yl)phenyl)propanenitrile] | – | 210 nM | > 80% | 60 to 85% |
